Measured values reported in US20210139844A1, “REPROGRAMMING FIBROBLASTS TO RETINAL CELLS” (UNIVERSITY OF NORTH TEXAS HEALTH SCIENCE CENTER, priority 2017, published 2021).
Entries after “also recorded” stand apart in the source; their conditions may differ.

Key:
Nrl-GFP MEFs = experiment: Chemical reprogramming of Nrl-GFP MEFs to photoreceptor like cells (Nrl-GFP reporter); type: cell-based, mouse; details: for effect on reprogramming of removing the small molecule from the cocktail: small molecule subtracted from cocktail
Description: Identification of small molecules for derivation of photoreceptor-like cells (CiPPC). […] The inventors have exploited this phenomenon to find out additional small molecules those might be important for the determination of retinal neuron specific fate. An array of small molecule along with different medium compositions and time points has been tested as possible candidates. Mouse Embryonic Fibroblasts (MEFs) from a photoreceptor specific reporter mouse (Nrl-GFP) are used as starting cells for the reprogramming studies (Akimoto et al., PNAS 103:3890-95, 2006). If converted to photoreceptors, these MEFs would have GFP expression from the Nrl promoter. […] This conversion requires three additional factors Sonic Hedgehog (S), Taurine (T) and Retinoic acid (R) introduced on day 8 (d8) (FIG. 1A and FIG. 1B). […] The inventors have tested the importance of each small molecule in the reprogramming process by using Nrl-GFP MEFs as starting cells.
All small molecules diluted in DMSO according to manufacturer's instruction. On day 0 about 35000 MEFs were seeded in each well of a 24 well plate (0.1% gelatin coated for O/N). At day 1 change the medium with photoreceptor induction medium (PIM) with V (0.5 mM), C (4.8 μM), R (2 μM) F (10 βM). On day 3 change the medium (PIM) with V, C, R, F plus IWR1 (I, 10 βM). Change the medium (PIM) with VCRFI on d5 and d6. On day 8 add Sonichedgehog (S, 3 nM), taurine molecules and factors. Finally on day 11 cells with GFP expression were observed. For the differentiation replace the medium with photoreceptor differentiation medium (PDM) and keep them up to d15 to d16. […] Cells were fixed or analyzed on day 7.

mitochondrial ROS = experiment: Measurement of mitochondrial ROS (MitoSox staining, fluorometry); type: cell-based, mouse
Description: Mitochondrial ROS activates NF-kB which controls CiPPC reprogramming by retrograde signaling. Next the inventors investigated the reasons behind NFkβ activation. Known inducers of NF-kB are highly variable including TNFα, LPS, Ionizing radiation and mitochondrial ROS (Formentini et al., Mol Cell 45:731-42, 2012; Andreakos et al., Blood 103:2229-37, 2004). […] So the inventors contemplated that mitochondrial ROS generated by small molecule treatment may activate NF-kB. […] The inventors found increased accumulation of mitochondrial ROS indicator mitosox during reprogramming starting from d5 compared to control MEFs (FIG. 6A, FIG. 6B and FIG. 6C). To measure the importance of mROS during chemical reprogramming, conversion experiments were performed in the presence of mitochondrial ROS scavenger, mitotempo.
Measurement of mitochondrial ROS. Mitochondrial ROS was detected and quantified. […] Cells were then washed twice with PBS and fluorescence has been monitored with a microplate reader set to 510 nm excitation (Ex bandwidth: 10 nm) and 595 nm emission (Em bandwidth 35 nm) wavelengths. mROS generation was also micrographed by Leica fluorescence microscope an quantified in Leica Application Suite X Software. […] Average intensity within each ROI was measured and exported to Excel data sheet. Average change in fluorescence was calculated for each type of cells. […]

HepG2 cells = details: treated for several days; cited from earlier work
HFL1-Nrl-DsRed cells = experiment: Chemical reprogramming of human HFL1-Nrl-DsRed fibroblasts to photoreceptor like cells; type: cell-based; details: added during reprogramming
Description: Identification of small molecules for derivation of photoreceptor-like cells (CiPPC). To identify small molecules responsible for retinal neuron specific fate, the inventors followed previous studies describing a set of small molecules that can convert fibroblasts into neurons (Hu et al., Cell stem cell 17:204-12, 2015; Zhang et al., Cell stem cell 17:735-47, 2015; Fu et al., Cell research 25, 2015; Cheng et al., Cell research 25:1269-72, 2015). Four out of six small molecules described in these studies, Valproic acid (V), CHIR(C), Repsox (R) and Forskolin(F), are able to convert fibroblast cells into mixed progenitor stage (Fu et al., Cell research 25, 2015). The inventors have exploited this phenomenon to find out additional small molecules those might be important for the determination of retinal neuron specific fate. An array of small molecule along with different medium compositions and time points has been tested as possible candidates. Mouse Embryonic Fibroblasts (MEFs) from a photoreceptor specific reporter mouse (Nrl-GFP) are used as starting cells for the reprogramming studies (Akimoto et al., PNAS 103:3890-95, 2006). If converted to photoreceptors, these MEFs would have GFP expression from the Nrl promoter. […] This conversion requires three additional factors Sonic Hedgehog (S), Taurine (T) and Retinoic acid (R) introduced on day 8 (d8) (FIG. 1A and FIG. 1B). Human fibroblasts (HFL1, ATCC CCL153) can also be converted into photoreceptor like cells by these small molecules. The inventors first generated a HFL-1 cell line having a lentivirally transduced DsRed reporter downstream of Nrl promoter. Drug selected HFL1-Nrl-DsRed cells were used for the reprogramming by the previously described mouse specific protocol with some modifications (FIG. 1C). Round shaped and neuron like Nrl promoter driven DsRed positive cells were evident starting from d6 to d8 (FIG. 1D). […]
All small molecules diluted in DMSO according to manufacturer's instruction. […] Cells were fixed or analyzed on day 7.

In the case of `Cc1cnc(-c2cnc(NCCNc3ccc(C#N)cn3)nc2-c2ccc(Cl)cc2Cl)[nH]1` [CHIR, 6-[2-[[4-(2,4-dichlorophenyl)-5-(5-methyl-1H-imidazol-2-yl)pyrimidin-2-yl]amino]ethylamino]-pyridine-3-carbonitrile], the “effect on reprogramming of removing the small molecule from the cocktail” value (shortened to “effect on reprogramming”) (Nrl-GFP MEFs) is reported as “worst effect on reprogramming process”.

In the case of `O=C(Nc1cccc2cccnc12)c1ccc(N2C(=O)[C@@H]3[C@H](C2=O)[C@@H]2C=C[C@H]3C2)cc1` [IWR1, N-(Quinolin-8-yl)-4-(exo-4-aza-3,5-dioxotricyclo[5.2.1.02,6]oct-8-en-4-yl)benzamide], the “mROS generation in reprogramming without the small molecule” value (mitochondrial ROS; d8) is reported as “did not show increase in mROS generation”, the “conversion of GFP negative MEFs into GFP+ photoreceptor like cells” value (Nrl-GFP MEFs; in presence of VCRF, d10 to d11, S, T, R introduced on d8) is reported as “can covert GFP negative MEFs into GFP^+ positive round shaped photoreceptor like cells” and the “effect on reprogramming” value (Nrl-GFP MEFs) is reported as “worst effect on reprogramming process; also recorded: reduced the reprogramming efficiency”.

With `Cc1cccc(-c2n[nH]cc2-c2ccc3ncccc3n2)n1` [Repsox, 2-(3-(6-Methylpyridin-2-yl)-1H-pyrazol-4-yl)-1,5-naphthyridine] the “effect on reprogramming” value (Nrl-GFP MEFs) was “worst effect on reprogramming process”.

For `Oc1nc(-c2ccc(C(F)(F)F)cc2)nc2c1CSCC2` [XAV939], the axin stabilization (HepG2 cells) is given as “can also stabilize the axin at cytosol”.

In the case of `CC1(C)CC(NC(=O)C[P+](c2ccccc2)(c2ccccc2)c2ccccc2)CC(C)(C)N1[O]` [mitotempo], the “mROS generation upon scavenger treatment” value (mitochondrial ROS; mitoSox staining, fluorometric analysis) is reported as “decrease of mROS generation”, the “yield of reprogrammed cells” value (Nrl-GFP MEFs; conversion in presence of mROS scavenger, printed as 'significantly decreased yield ... (20%)') is reported as 20% and the “number of Nrl-GFP+ reprogrammed cells at different concentrations” value (Nrl-GFP MEFs; data not shown) is reported as “dose dependent relationship”.

B1: GDNF: factor added during human cell reprogramming (protein, UniProt P39905 78-211, looked up)
Glial cell line-derived …: SPDKQMAVLPRRERNRQAAAANPENSRGKGRRGQRGKNRGCVLTAIHLNVTDLGLGYETKEELIFRYCSGSCDAAETTYDKILKNLSRNRRLVSDKVGQACCRPIAFDDDLSFLDDNLVYHILRKHSAKRCGCI
With B1 the “morphology of converted human photoreceptor like cells” value (shortened to “morphology”) (HFL1-Nrl-DsRed cells) was “helped these converted human photoreceptor like cells to have a healthy morphology”.

B2: BDNF: factor added during human cell reprogramming (protein, UniProt P23560 129-247, looked up)
Neurotrophic factor BDNF: HSDPARRGELSVCDSISEWVTAADKKTAVDMSGGTVTVLEKVPVSKGQLKQYFYETKCNPMGYTKEGCRGIDKRHWNSQCRTTQSYVRALTMDSKKRIGWRFIRIDTSCVCTLTIKRGR
modifications: Neurotrophic factor BDNF
notes: factor added during human cell reprogramming
With B2 the “morphology” value (HFL1-Nrl-DsRed cells) was “helped these converted human photoreceptor like cells to have a healthy morphology”.

B3: NT3: factor added during human cell reprogramming (protein, UniProt P20783 139-257, looked up)
Neurotrophin-3: YAEHKSHRGEYSVCDSESLWVTDKSSAIDIRGHQVTVLGEIKTGNSPVKQYFYETRCKEARPVKNGCRGIDDKHWNSQCKTSQTYVRALTSENNKLVGWRWIRIDTSCVCALSRKIGRT
modifications: Neurotrophin-3
notes: as for B2
In the case of B3, the “morphology” value (HFL1-Nrl-DsRed cells) is reported as “helped these converted human photoreceptor like cells to have a healthy morphology”.
